According to patent US20110003878A1, “NOVEL DERIVATIVES OF PHTHALIMIDE AS HISTONE DEACETYLASE INHIBITORS” (UNIVERSIDAD DE GRANADA, priority 2006, published 2011):

System: HDAC (HeLa nuclear extract, rich in HDAC activity)
Experiment: HDAC AK-501 colorimetric inhibition kit (Color de Lys substrate, HeLa nuclear extract)
Assay type: biochemical, human
Conditions: Color de Lys substrate 0.2 mM final, 20 minutes at 37° C., reading at 405 nm, 5 concentrations (0.1-1.0 μM)
Procedure: The process of the assay was carried out in two steps. In the first step, the Color de Lys® substrate, containing an acetylated lysine group, was incubated with a sample of HeLa (human cervical cancer cell line) nuclear extract, rich in HDAC activity. […] There is a linear correlation between the absorption and the deacetylation of lysine within instrumental limits. The operating procedure was the following: • 1. […] The Hela extract was added, except to the enzyme-free control. • 3. The plate and the Color de Lys® substrate were thermostatted at 37° C. • 4. The reactions were started adding the 0.4 mM substrate (final concentration of the substrate 0.2 mM) in each well and it was stirred. • 5. A reaction time of 20 minutes at 37° C. was allowed. • 6. The Color de Lys® developer, prepared approximately 30 minutes before its use, was added (the developer was used diluted 20 times with an amount of TSA resulting in a final concentration of 1 μM in the assay). • It was allowed to react for 15 minutes at 37° C. • 7.

Row | SMILES | IC50
1 | O=C(CCCCCN1C(=O)c2ccc([N+](=O)[O-])cc2C1=O)NO [MTC-127, 6-(5-nitro-1,3-dioxo-isoindol-2-yl)-N-hydroxyhexanamide] | 350 nM
2 | Cc1ccc2c(c1)C(=O)N(CCCCCC(=O)NO)C2=O [MTC-141, 6-(5-methyl-1,3-dioxoisoindol-2-yl)-N-hydroxyhexanamide] | 180 nM
